Measured values: paper PMC8752549, “Esc peptides as novel potentiators of defective cystic fibrosis transmembrane conductance regulator: an unprecedented property of antimicrobial peptides” (Cellular and Molecular Life Sciences: CMLS, 2021)
Where no end group is shown, it is not given here. [ ]: non-standard residue; d: D form.

Columns and labels:
[1] = test system: null-FRT cells not expressing CFTR; experiment: Whole-cell patch-clamp, null-FRT cells; assay type: cell-based, Fischer rat; details: untransfected FRT, 20 µM FSK + 10 µM Esc peptides or GEN, n ≥ 3
Procedure: For whole-cell experiments the extracellular (bath) solution contained (in mM): 150 NaCl, 1 CaCl2, 1 MgCl2, 10 glucose, 10 mannitol, 10 Na-HEPES (pH 7.4). The pipette (intracellular) solution contained (in mM): 120 CsCl, 10 TEA-Cl, 0.5 EGTA, 1 MgCl2, 10 Cs-HEPES, 40 mannitol, 1 ATP. To activate CFTR, 20 µM FSK was added to the extracellular solution to phosphorylate the channel. In some samples the combination FSK + 50 µM GEN (positive control) as well as FSK + 10 µM peptides were added to the extracellular solution to test their potentiator activity.
For both patch configurations, the protocol to correlate current intensity and voltage for stimulation consisted of 500-ms voltage steps from -100 to + 100 mV or from -80 to + 120 mV in 20 mV increments, starting from a holding potential of -60 mV. The time-dependence of CFTR activation and inactivation was monitored by application of steps of 50 ms pulses to − 100, − 50, 0, 50 and 100 mV every 5 s from a holding potential of − 60 mV. The interval between steps was 4 s. Membrane currents were filtered at 1 kHz and digitized at 5 kHz by a low–pass 4–pole Bessel filter. […]
Whole-cell membrane currents were recorded in null FRT cells not expressing CFTR by using the same experimental solutions and stimulation protocols as described in the main text for F508del- FRT.

[2] = test system: F508del-FRT and wt-FRT cells; assay type: cell-based, Fischer rat
Procedure: (§1) To evaluate the lung epithelia integrity, FRT and CFBE41o- cells expressing mutated or functional CFTR were seeded on permeable supports (24 Millicell plates PSHT01QR1) and incubated for 24 h in their standard culture medium in the presence of peptides, at different concentration. DMSO, 0.1% v:v, final concentration) that was used to solubilize each compound was included as control. After 24 h, the medium was replaced with saline solution containing (in mM): 130 NaCl, 2.7 KCl, 1.5 KH2PO4, 1 CaCl2, 0.5 MgCl2, 10 glucose, 10 Na-Hepes (pH, 7.4). Saline solution was added to both apical and basolateral compartments of the permeable supports. Samples were incubated for 10 min at 37 °C and TEER was measured in basal conditions without CFTR activation, with the epithelial voltmeter (MILLICELL ERS-2, Millipore Burlington, MA).

[3] = test system: F508del-CFBE41o- and wt-CFBE41o- cells; assay type: cell-based
Procedure: as §1

F508del-CFTR [4] = experiment: CFTR-mediated transepithelial conductance (TEER), F508del-FRT; assay type: cell-based; details: F508del-FRT pre-incubated 24 h with 1 µM VX-809; 10 µM peptide + 20 µM FSK, 10 min; inhibition with 30 µM PPQ102; n ≥ 6
Procedure: To evaluate CFTR activation, the same saline solution was used. Cells expressing F508del mutation were incubated with 1 µM VX-809 to favor the mutant protein rescue. After measurement of basal TEER, 20 µM FSK + 10 µM GEN as positive control, or FSK + peptides at the desired concentration were added on the epithelium apical side. Finally, 30 µM PPQ102 was added on the epithelium apical side to block CFTR, so to measure the own activity of CFTR. TEER measurement was performed at 37 °C after 10 min from the addition of each compound. From the values of TEER measured before and after CFTR inhibition, we calculated the CFTR-dependent TEER for each condition. All values of TEER were converted to transepithelial conductance (TEEC) using the formula TEEC = 1/TEER [67].

[5] = test system: P. aeruginosa pulmonary infection; details: cited from earlier work
Source text: (§2) During the last years, several studies have been conducted to identify compounds with suitable antibacterial properties. Antimicrobial peptides (AMPs) are a promising and effective therapeutic resource. Indeed, they rapidly kill microbial pathogens by perturbing their plasma-membrane thus limiting the induction of bacterial resistance compared to conventional antibiotics. In our laboratory, we identified a frog-skin derived membrane-active cationic AMP, i.e., Esc(1–21) […]-NH2 [24], with biocidal activity against the planktonic and the biofilm forms of P ...

wt-CFBE and F508del-CFBE = details: monolayers of wt-CFBE and F508del-CFBE; cited from earlier work
Source text: as §2

[6] = cited from earlier work
Source text: as §2

[7] = ivacaftor-based treatment of patients; cited from earlier work
Source text: Many proof-of-concept studies have disclosed that chemically modified ATP analogs and small organic molecules (e.g., isoflavones) have good potentiation effect by enhancing CFTR channel gating. However, the expected unspecific binding of ATP analogs to other proteins implicated in physiological functions limits the development of these molecules to the clinic. Other compounds capable of improving the activity of mutant CFTR can promote its phosphorylation by inhibiting phosphodiesterase’s activity, to heighten the intracellular level of cAMP. Ivacaftor was the first CFTR potentiator approved f ...

F508del-CFTR [8] = experiment: Inside-out patch-clamp (macro-patches), F508del-FRT cells; assay type: biochemical; details: 1 mM ATP + 125 nM PKA catalytic subunit + 10 µM peptide in intracellular bath, n ≥ 3
Procedure: Whole-cell and inside-out membrane currents were recorded in FRT cells stably expressing F508del CFTR after incubation with 1 µM of the corrector VX-809 for 24 h to increase mutated CFTR membrane expression.
For inside-out patch-clamp experiments, the pipette solution contained (in mM): 150 N-methyl-D-glucamine chloride (NMDG-Cl), 3 CaCl2, 2 MgCl2, 10 Na-Hepes (pH 7.3). The bath solution for these experiments contained (in mM): 150 NMDG-Cl, 2 MgCl2, 10 EGTA, 10 Na-Hepes, 1 ATP, which was supplemented with 125 nM catalytic subunit of PKA (Promega, […]) and peptides at 10 µM. Pipette electrical resistance for both whole-cell and inside-out experiments was 3–5 MΩ.
For both patch configurations, the protocol to correlate current intensity and voltage for stimulation consisted of 500-ms voltage steps from -100 to + 100 mV or from -80 to + 120 mV in 20 mV increments, starting from a holding potential of -60 mV. The time-dependence of CFTR activation and inactivation was monitored by application of steps of 50 ms pulses to − 100, − 50, 0, 50 and 100 mV every 5 s from a holding potential of − 60 mV. The interval between steps was 4 s. Membrane currents were filtered at 1 kHz and digitized at 5 kHz by a low–pass 4–pole Bessel filter.

O=c1c(-c2ccc(O)cc2)coc2cc(O)cc(O)c12 [GEN, genistein]
change of ion current [1]: no significant change

Gly-Ile-Phe-Ser-Lys-Leu-Ala-Gly-Lys-Lys-Ile-Lys-Asn-Leu-Leu-Ile-Ser-Gly-Leu-Lys-Gly- NH2 [Esc(1–21)]
change of TEER / transepithelial conductance (G) versus DMSO control [2]: do not alter | change of TEER / transepithelial conductance (G) versus DMSO control [3]: do not alter

GIFSKLAGKKIKN[dL]LI[dS]GLKG-NH2 [Esc(1–21)-1c, diastereomer of Esc(1–21) carrying D-Leu14 and D-Ser17]
change of TEER / transepithelial conductance (G) versus DMSO control [2]: do not alter | CFTR-mediated conductance (ΔG) compared to FSK-treated samples (F508del-CFTR [4]): slightly more pronounced | change of TEER / transepithelial conductance (G) versus DMSO control [3]: do not alter | toxicity or inflammatory side events [5]: without eliciting toxicity or inflammatory side events | effectiveness in contrasting P. aeruginosa pulmonary infection ([5]; mice): higher effectiveness than the all-L counterpart | promotion of re-epithelialization compared with Esc(1–21) (wt-CFBE and F508del-CFBE): more efficient | susceptibility to proteolytic degradation compared with Esc(1–21) [6]: less susceptible

CC(C)(C)c1cc(C(C)(C)C)c(NC(=O)c2c[nH]c3ccccc3c2=O)cc1O [VX-770, ivacaftor]
enhanced lung function [7]: 10%

Gly-Ile-Phe-Ser-Lys-Leu-Ala-Gly-Lys-Lys-Ile-Lys-Asn- DLeu -Leu-Ile-DphosphoSer-Gly-Leu-Lys-Gly-NH2 [[DLeu^14, DphosphoSer^17]Esc, Esc analog with DLeu14 and D-phosphoSer at position 17]
current intensity at + 100 mV compared to control basal conditions (F508del-CFTR [8]): ~ 2.5 fold | CFTR-mediated conductance (ΔG) compared to FSK-treated samples (F508del-CFTR [4]): about twofold
